Reference: publication PMC12053642, “Oral PRI-002 treatment in patients with MCI or mild AD: a randomized, double-blind phase 1b trial” (Nature Communications, 2025)
“And” between values parts separate entries of the source, which are not always exact repeats. Equal entries are not always repeated. “Also recorded” adds a separate entry of the source. Square brackets hold non-standard residues; d marks the D form. Peptide text beside a SMILES is read from it.

Assays:
Type in all cases: in vivo, human
[1] = tested on: patients with MCI or mild dementia due to AD; test: Mini-Mental State Examination (MMSE); conditions: 300 mg q.d. oral 28 d
Description: Twenty male and female (not of childbearing potential) patients between 50 and 80 years of age, with a Mini mental state examination (MMSE) score of 22 to 30, CSF biomarkers indicating AD pathology (p-tau >62 pg/ml, total CSF Aβ 1-42/1-40 ratio ≤0.055), a MRI scan in accordance with AD diagnosis not older than 3 months, at least 3 months stable medication prior to screening, were enrolled. Nineteen patients were randomized and data analyzed, one patient dropped out by withdrawal of the informed consent before treatment was initiated. Patients underwent an extensive clinical workup and received a MRI brain scan as well as a lumbar puncture. […] Patients who met any of the following criteria were not eligible for enrollment: History of seizures, stroke or transient ischemic attack, unstable medical, neurological, or psychiatric condition. Current treatment with typical antipsychotic or neuroleptic medication or within 6 months prior to screening. Anticoagulants within 3 months prior to screening, chronic use of opiates or opioids (including long-acting opioid medication) within 3 months prior to screening, stimulant medications (amphetamine, methylphenidate preparations, or modafinil) within 1 month prior to screening and throughout the study, chronic use of benzodiazepines, barbiturates, or hypnotics. […]

[2] = tested on: patients with MCI or mild dementia due to AD; test: Clinical Dementia Rating Sum of Boxes (CDR-SB); conditions: 300 mg q.d. oral 28 d
Procedure: (§1) The effect of PRI-002 on cognition and function was tested by the CERAD+ battery and CDR-SB at baseline, Day 28, and Day 56, exploratory endpoints included the change of biomarkers (p-tau, t-tau, Aβ 1-40, Aβ 1-42 and Aβ oligomers) in CSF, blood plasma; change in CERAD+ test battery and CDR-SB scores.

Aβ 1-40, Aβ 1-42 = test: CSF Aβ 1-42 and ratio Aβ42/40, Lumipulse immunoassay; conditions: Day 28, one line per patient, 300 mg q.d. oral 28 d
Procedure: as §1

Aβ oligomers = test: CSF Aβ oligomers, sFIDA technology
Procedure: as §1

[3] = tested on: patients with MCI or mild dementia due to AD; test: Safety MRI (ARIA); conditions: MRI at screening, after Day 28 and Day 56, 300 mg q.d. oral 28 d, n=9
Procedure: For safety assessment during baseline, at Day 14, 28, and 56, laboratory parameters and vital signs were measured, a physical exam was performed, and ECGs were recorded per protocol. A safety MRI was performed at screening, a second one within 3 days after day 28 and a third one at Day 56. During baseline and at day 28, EEG measurements were performed. In addition, nature, frequency, severity, and timing of AEs and SAEs were recorded at day 14, 28, and 56. Standardized AE reports were provided and analysed by the Data Safety and Monitoring Board (DSMB).

[4] = tested on: patients with MCI or mild dementia due to AD; test: Safety laboratory (hematology, clinical chemistry, hematoserology); conditions: 300 mg q.d. oral 28 d
Procedure: All safety parameters and laboratory values (urinalysis, complete blood count (CBC), Quick, partial thromboplastin time (PTT), creatinine, […] (CK), […] (CRP), alanine aminotransaminase (ALT), aspartate aminotransferase (AST)) as well as ECG, EEG, MRI, and vital signs were analyzed in a descriptive manner according to their scales (frequencies, means). In order to compare a variable between both groups (placebo vs PRI-002) at one time point, a parameter free Wilcoxon rank sum test was used. As described in the statistical analysis plan, linear mixed models with random effect were used for the comparison of longitudinal effects between both groups (placebo vs PRI-002). ANOVA was also applied to assess longitudinal effects. Since the results are similar to the linear mixed models, results are presented using linear mixed models. A 95% confidence interval was used to check whether the parameters are within their normal ranges. The p value (p < 0.05) for the word list test was not corrected for multiplicity. All statistical data analysis was performed with the certified software Statistical Analysis System (SAS) by MicroDiscovery GmbH (Berlin, Germany).

[5] = PRI-002 concentration in CSF
Procedure: (§2) In addition, also CSF levels of PRI-002 were determined. Due to non-specific binding of PRI-002 to vials used for sampling and storage the measured values, which are depicted in the Supplementary Table 7 are minimal values and the actual values will most probably be higher than reported here.
(11) Why were there no PK (drug concentration) assessments in CSF? Because BBB penetration in mice vs humans can diverge, matching CSF drug concentrations in human to those achieved in the animal pharmacology studies would be more compelling than matching […] drug concentrations. If there is a fundamental technical problem, it should be mentioned in the manuscript. […]
were unable to determine exact values. Due to non-specific binding of PRI-002 to vials used for sampling and storage of CSF, the measured values, which are depicted in the Table below are minimal values and will probably be higher than reported here.
Considering the three CSF samples in which the PRI-002 levels were above the LLOQ, approximately 15% of the mean predose plasma level of all patients at Day 28 (1.97±2.4 ng/ml) reached the CSF and […]
as §2, with “We will include the Table S5 in the supplement and the following sentence in the results part page 11, line 327-331: ”In” for “In”, “non -specific” for “non-specific”, “the” for “the Supplementary”, “S7” for “7”
Considering the three CSF samples in which the PRI -002 levels were above the LLOQ, approximately […]
Table S7 PRI-002 Level in CSF of […]

t-tau = test: CSF t-tau, Lumipulse immunoassay; conditions: Day 28, n=9, 300 mg q.d. oral 28 d
Procedure: as §1

[6] = EoT (Day 28), geometric mean ± SD
[7] = FU EoS (Day 56), geometric mean ± SD

CC(C)C[C@@H](NC(=O)[C@H](NC(=O)[C@H]1CCCN1)[C@H](C)O)C(=O)N[C@H](Cc1c[nH]cn1)C(=O)N[C@@H](C(=O)N[C@H](Cc1c[nH]cn1)C(=O)N[C@H](CC(N)=O)C(=O)N[C@H](CCCNC(=N)N)C(=O)N[C@H](CCCNC(=N)N)C(=O)N[C@H](CCCNC(=N)N)C(=O)N[C@H](CCCNC(=N)N)C(=O)N[C@H](CCCNC(=N)N)C(N)=O)[C@H](C)O [PRI-002] (H-[dP][dT][dL][dH][dT][dH][dN][dR][dR][dR][dR][dR]-NH2; N-terminus and C-terminus assumed)
MMSE, Mean ([1]; Day 28, n=8): 27.9 | MMSE, Mean ([1]; Day 56, n=9): 27.2 | CDR-SB, Mean ([2]; Day 28, n=8): 1.75 | CDR-SB, Mean ([2]; Day 56, n=9): 2.39 | Aβ42, individual patients (Aβ 1-40, Aβ 1-42): 350 pg/mL and 512 pg/mL and 223 pg/mL and 748 pg/mL and 456 pg/mL and 595 pg/mL and 670 pg/mL and 791 pg/mL and 820 pg/mL | Ratio Aβ42/40, individual patients (Aβ 1-40, Aβ 1-42): 0.033 and 0.050 and 0.026 and 0.042 and 0.036 and 0.045 and 0.059 and 0.056 and 0.047 | Aβ42 oligomers, Mean (Aβ oligomers; CSF, Day 28, n=9, 300 mg q.d. oral 28 d): 4.747 fM | slope Abeta oligomers, individual patients (Aβ oligomers; CSF, change from Day 1 to Day 28, one line per patient (n = 9), 300 mg q.d. oral 28 d): 1.237 and 0.635 and 0.4087 and 0.1526 and 0.3147 and -0.0095 and -0.4177 and -0.1322 and 0.7258 | changes in p-tau, t-tau, Aβ 1-40, Aβ 1-42 and Aβ oligomers in CSF (Aβ oligomers; Day 28 versus baseline and versus placebo, 300 mg q.d. oral 28 d): no significant changes | relationship between changes in Aβ oligomer concentrations and PRI-002 plasma levels at Day 1 (Aβ oligomers; Spearman, two-tailed, n = 9): significant inverse relationship | MRI: ARIA, edematous changes [3]: no edematous changes; also recorded: no ARIA | Hematocrit ([4]; Baseline (Day 1), geometric mean ± SD): 0.38±0.03 l/l | Erythrocyte ([4]; Day 14, geometric mean ± SD): 4.14 ± 0.42 pL⁻¹ | Leucocyte ([4]; Day 14, geometric mean ± SD): 5.95 ± 1.71 nL⁻¹ | PTT ([4]; Day 14, geometric mean ± SD): 31.60 ± 3.95 s | Quick value (prothrombin time) ([4]; Day 14, geometric mean ± SD): 96.99±21.30% | Erythrocyte [4, 6]: 4.06 ± 0.44 pL⁻¹ | Leucocyte [4, 6]: 5.86 ± 1.81 nL⁻¹ | PTT [4, 6]: 29.71 ± 1.94 s | Quick value (prothrombin time) [4, 6]: 101.13±9.55% | Erythrocyte [4, 7]: 4.10 ± 0.50 pL⁻¹ | Hematocrit [4, 7]: 0.40±0.03 l/l | Leucocyte [4, 7]: 5.66 ± 1.41 nL⁻¹ | PTT [4, 7]: 30.96 ± 3.11 s | Quick value (prothrombin time) [4, 7]: 98.71±21.08% | Hematocrit ([4]; Screening (Day 0), geometric mean ± SD): 0.39±0.03 l/l | changes in laboratory parameters (clinical chemistry, blood count, hematoserology) ([4]; screening to midterm visit to end of treatment): no clinically relevant changes | PRI-002 Level in CSF of individual patients ([5]; Day 28, LLOQ 0.200, minimal values due to non-specific binding to vials, one line per patient, 300 mg q.d. oral): < 0.200 ng PRI-002/ml (6×) and 0.203 ng PRI-002/ml and 0.377 ng PRI-002/ml and 0.304 ng PRI-002/ml | share of the mean predose plasma level that reached the CSF ([5]; three CSF samples above LLOQ versus predose plasma of all patients at Day 28): approximately 15% | share of the mean predose plasma level that reached the CSF ([5]; three CSF samples above LLOQ versus predose plasma of patients 2, 3 and 4 at Day 28): approximately 8% | t-tau, Mean (t-tau): 698.7 pg/mL
